Data published in patent US20130156845A1, “LIPID FORMULATED SINGLE STRANDED RNA” (ALNYLAM PHARMACEUTICALS, INC., priority 2010, published 2013).
pEC50: −log10 of the molar value. Where two headings read alike, the source gives them in different places. Strand notation (5' to 3'): a small letter for the sugar, then the base; units joined by * are phosphorothioate-linked, units joined directly phosphodiester-linked; [ ] holds rarer units or linkages, { } end groups; capitals alone tell only the bases. [Rc] = thymidine, 2',5'-bis modified nucleoside Rc; e = 2'-O-(2-methoxyethyl) (MOE); m = 2'-O-methyl; {P} = phosphate; f = 2'-fluoro

Key:
A549 cells = experiment: MicroRNA mimics: cell cycle assay; type: cell-based; conditions: RNAIMAX transfection, 0.1-100 nM, nocodazole, propidium iodide flow cytometry
Experimental: A cell cycle assay was used to evaluate the activity of microRNA mimics. A549 cells were plated at a density of approximately 45,000 cells per well of a 24-well plate. The following day, cells were transfected with microRNA mimics and control oligomeric compounds, using RNAIMAX as the transfection reagent. Oligomeric compounds were tested at concentrations ranging from 0.1 nM to 100 nM. Control oligomeric compounds were also tested. Approximately 24 hours following transfection, nocodazole was added to the cells at a concentration ranging from 0.5 to 2.0 μg/ml. Approximately 16 hours later, the cells were harvested, washed, ethanol-fixed and stained with propidium iodide. Cells cycle profiles were generated by subjecting the stained cells to flow cytometry (FACSCAN).

[1] = tested on: miR-34 seed-matched nucleic acids; experiment: Microarray analysis of gene expression changes after miR-34 mimics; type: cell-based; conditions: microarray analysis of cells treated with miR-34 mimics
From the text: In addition to measuring cell cycle progression, cells treated with miR-34 mimics were subjected to microarray analysis to compare the profile of gene expression changes following treatment with microRNA mimics.

[2] = mouse, serum
Experimental: Single-stranded oligomeric compounds were tested for stability in mouse serum.

PTEN [3] = experiment: PTEN mRNA reduction in HeLa cells, dose response (Example 59); type: cell-based, human; conditions: percent inhibition of PTEN mRNA, real-time PCR normalized to RIBOGREEN, 0.20-50 nM
Experimental: When cells reached 65-75% confluency, they are treated with one or more oligomeric compounds. The oligomeric compound is mixed with LIPOFECTIN™ Invitrogen Life Technologies, Carlsbad, Calif.) in Opti-MEM™-1 reduced serum medium (Invitrogen Life Technologies, Carlsbad, Calif.) to achieve the desired concentration of the oligomeric compound(s) and a LIPOFECTIN™ concentration of 2.5 or 3 μg/mL per 100 nM oligomeric compound(s). This transfection mixture is incubated at room temperature for approximately 0.5 hours. For cells grown in 96-well plates, wells are washed once with 100 μL OPTI-MEM™-1 and then treated with 130 μL of the transfection mixture. Cells grown in 24-well plates or other standard tissue culture plates are treated similarly, using appropriate volumes of medium and oligomeric compound(s). […]
Quantitation of target mRNA levels is accomplished by real-time quantitative PCR using the ABI PRISM™ 7600, 7700, or 7900 Sequence Detection System (PE-Applied Biosystems, Foster City, Calif.) according to manufacturer's instructions. This is a closed-tube, non-gel-based, fluorescence detection system which allows high-throughput quantitation of polymerase chain reaction (PCR) products in real-time. As opposed to standard PCR in which amplification products are quantitated after the PCR is completed, products in real-time quantitative PCR are quantitated as they accumulate. […]

human PTEN = experiment: PTEN expression in HeLa cells, ssRNAs vs siRNAs (Example 62); type: cell-based
Summary of the method: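 HeLa cells treated with antisense strands either as single-stranded RNAs or duplexed with a common sense strand. PTEN mRNA levels normalized; IC50 from linear regression of normalized mRNA against log concentration.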

PTEN [4] = experiment: PTEN mRNA reduction in HeLa cells, dose response (Example 69); type: cell-based, human; conditions: percent inhibition of PTEN mRNA, 0.067-50 nM
Experimental: In accordance with the present disclosure, oligomeric compounds were synthesized and tested for their ability to reduce PTEN expression over a range of doses. Human HeLa cells were treated with either ISIS 447581, 467074, 418046 or 467076. A dose comparison was evaluated with dose concentrations of 0.067, 0.2, 0.62, 1.9, 5.5, 16.7 and 50 nM using methods described herein. Expression levels of PTEN were determined using real-time PCR and normalized to RIBOGREEN™ using methods described herein. The percent inhibition of PTEN mRNA was determined and the resulting dose-response curves were used to determine the EC50. The EC50s are listed below.

P-UmGfGfCfAfGfUfGfUmCmUfUfAmGmCfUfGfGfUfUfGfUfAeAe ({P}-mUfGfGfCfAfGfUfGmUmCfUfUmAmGfCfUfG*fG*fU*fU*fG*fU*eA*eA) [ss miR-34]
cell cycle phenotype (A549 cells): blocking cells in the G1 phase of the cell cycle | effect on miR-34 seed-matched nucleic acids [1]: down-regulated miR-34 seed-matched nucleic acids

5′-Ps-UdUfoGfoUfoCfoUfoCfoUfoGfoGfoUfoCfoCfoUfsUfsAfsCfsUfsUfsAesAe [ISIS 435395]
T1/2 full length [2]: 7.8 h

P-TRcUfGmUfCmUfCmUfGmGfUmCfCmUfUmAfCmUfUmAeAe (antisense TUGUCUCUGGUCCUUACUUAA; sugars from the 5' end [Rc]fmfmfmfmfmfmfmfmfmee, 5' {P}, backbone not given here) [ISIS 447581, modified ssRNA targeting PTEN]
pEC50 (PTEN [3]): 9.06 | EC50 (human PTEN; antisense strand duplexed with sense strand ISIS 341401, PTEN mRNA, read-out: EC50 (nM) siRNA): 0.4 nM | EC50 (human PTEN; single stranded antisense compound, PTEN mRNA, read-out: EC50 (nM) ssRNA): 1 nM | pEC50 (PTEN [4]): 9.22
